Reference: patent US20250333775A1, “DIAGNOSTIC TEST AND THERAPY FOR PATIENTS WITH AUTO-BREWERY SYNDROME” (The Regents of the University of California, priority 2024, published 2025)

Key:
[1] = tested on: fecal microbiota from household partners; assay: Bioreactor cultures of fecal microbiota, ethanol production (household partners); type: cell-based, human; details: household partner samples, 24 hours; 10 μg/mL amphotericin B or 100 μg/mL chloramphenicol
Method: (§1) 100 mg of stool collected from patients during flare and remission and from their household partners was cultured in bioreactor cultures which consisted of 10 mL of Luria Broth (LB) media supplemented with 2 mM glucose and 2 mM cysteine in anaerobic conditions using hungate tubes. This concentration of glucose was chosen to emulate physiologic glucose concentrations in the intestine. Bioreactor cultures were untreated or treated with 0.05% dimethyl sulfoxide (DMSO, vehicle), 10 μg/mL amphotericin B, or 100 μg/mL chloramphenicol. To emulate supraphysiologic concentrations of glucose in the GI tract, patient microbiota was also cultured in LB media supplemented with 100 mM and 200 mM of glucose anaerobically using hungate tubes. Samples were collected at 0, 6, and 24 hours of culturing and ethanol concentration was assessed by high-performance liquid chromatography (HPLC) using a 1260 Infinity IILC system (Agilent, Santa Clara, CA, USA) equipped with an HPX-87H (Biorad, Hercules, CA, USA) or by using an enzyme-based kit (Abcam, in less than 20% of samples, low limit of detection 50 ng/dL).

[2] = tested on: fecal microbiota from patients with clinically documented Auto-brewery Syndrome; assay: Bioreactor cultures of fecal microbiota, ethanol production (ABS patients); type: cell-based, human; details: 24 hours
Method: as §1

[3] = samples from ABS patients, compared with DMSO vehicle control, 100 μg/mL chloramphenicol or 10 μg/mL amphotericin B

Row | SMILES | ethanol production in bioreactor cultures [1] | ethanol production in bioreactor cultures [2, 3] | ethanol production in bioreactor cultures ([2]; three ABS patient samples during a flare, 10 μg/mL amphotericin B)
1 | C[C@@H]1[C@H](O)[C@@H](C)/C=C/C=C/C=C/C=C/C=C/C=C/C=C/[C@H](O[C@@H]2O[C@H](C)[C@@H](O)[C@H](N)[C@@H]2O)C[C@@H]2O[C@](O)(C[C@@H](O)C[C@@H](O)[C@H](O)CC[C@@H](O)C[C@@H](O)CC(=O)O[C@H]1C)C[C@H](O)[C@H]2C(=O)O [amphotericin B] | No significant difference | did not have a significant effect | partially reduced
2 | O=C(N[C@H](CO)[C@H](O)c1ccc([N+](=O)[O-])cc1)C(Cl)Cl [chloramphenicol] | No significant difference | significantly decreased | 
